Reference: patent publication US20070254055A1, “Therapeutic Avenanthramide Compounds” (TRUSTEES OF TUFTS COLLEGE, priority 2003, published 2007)

Tested on: COX-2
Assay: TNF-α induced COX-2 expression in HT29 cells, Western blot
Format: cell-based, human
Conditions: 25 μM
Experimental: Western Blot Assay: HT-29 cells were seeded into 60 mm culture dishes and cultured to 70% confluence. Medium was changed from 10% to 1% FBS medium to minimize the effects of other growth-promoting substances normally contained in serum. For COX-2 expression studies, the cells were pre-treated with different concentrations of Avns oat extract and CH3-Avn-C for 1 hr followed by stimulation with 40 ng/ml of TNF-α for 23 hr. The medium was collected and kept at −80° C. for further analyzing prostaglandin E2 (PGE2) production. For analyzing the NFkB phosphorylation, the cells were pre-treated with different concentrations of Avns oat extract and CH3-Avn-C for 23 hr followed by stimulation with 40 ng/ml of TNF-α for 20 min. For determining the COX1 expression level, the cells were treated with different concentrations of Avns oat extract and CH3-Avn-C for 24 hr. To get the whole cell lysate for western, cells were harvested in 2× protein sample buffer by scraping the cells. […] Proteins bound to the primary antibodies were detected by the enhanced chemiluminescence (ECL) detection system and quantified by densitometric scanning.
Effect of Avns on COX-2 expression: HT29 cells express a low basal level of COX-2 protein. […] The expression of COX2 was measured by Western blotting. β-Actin expression level was used as a loading control. […]

SMILES: CS(=O)(=O)Nc1ccc([N+](=O)[O-])cc1OC1CCCCC1 [NS398]
- inhibition of COX2 expression: 50%
